The values below come from EP2058306A1, “Heteroaryl-substituted 2-pyridinyl-methylamine derivatives” (SCHWARZ PHARMA AG, priority 2007, dated 2009).

Structures are written as SMILES. pEC50, pKi: −log10 of the molar value. Where two headings read alike, the source gives them in different places. Some results are limits rather than exact numbers.

The target of one data set is T1, human 5-HT1A receptor (Homo sapiens, UniProt P08908).
T1 construct: expressed in transfected cells
T1 sequence (P08908 1-422): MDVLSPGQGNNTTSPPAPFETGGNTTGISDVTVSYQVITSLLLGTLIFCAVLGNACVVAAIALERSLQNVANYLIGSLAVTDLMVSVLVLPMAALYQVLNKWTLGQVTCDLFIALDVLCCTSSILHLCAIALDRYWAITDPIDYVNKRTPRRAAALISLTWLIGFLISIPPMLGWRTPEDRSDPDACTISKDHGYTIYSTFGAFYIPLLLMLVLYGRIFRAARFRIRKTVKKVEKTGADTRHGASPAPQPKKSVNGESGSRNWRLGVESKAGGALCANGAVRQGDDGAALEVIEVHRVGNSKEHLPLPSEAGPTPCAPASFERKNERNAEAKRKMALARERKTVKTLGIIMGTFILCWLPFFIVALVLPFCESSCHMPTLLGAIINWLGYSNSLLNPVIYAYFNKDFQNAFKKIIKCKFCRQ
The data set can be described thus: [35S]GTPγS assay of functional activity at the 5-HT1A receptor. The data set is classed as biochemical. As to conditions: membranes from CHO cells expressing human 5-HT1A receptor; for 5-HT1A stimulated [35S]GTPγS binding intrinsic effect: % activity of serotonin; for pEC50: read-out: 5-HT1A stimulated [35S]GTPγS binding EC50 value. How it is done: In detail, membranes from CHO (Chinese hamster ovary) cells stably expressing the human 5-HT1A receptor were stimulated with an increasing concentration of test compounds used in a range of subnanomolar to micromolar concentrations in the presence of radioactive [^35S]GTPγ. The amount of bound radioactivity which indicates the amount of stimulation of the receptor was determined after transferring the membranes to filters by scintillation counting. Dose response correlations could be derived and the particular stimulation of the receptor was compared to the maximum effect of the reference compound and physiological ligand serotonin.
Table 2: Intrinsic activities of the compounds of this invention at the serotonin 5-HT1A receptor determined in a [35S]GTPγS assay
A general note: GTPγS is a poorly hydrolysed GTP analogue; its binding reports G protein activation.

For data set [1] the following is noted: cited from Maurel et al, reference (14); cited from earlier work.
In a further data set the target is T2, dopamine D1 receptor (Sus scrofa, UniProt P50130).
T2 construct: native membrane preparations from porcine striatum; from tissue; host or cells: porcine striatum
T2 sequence (P50130 whole entry): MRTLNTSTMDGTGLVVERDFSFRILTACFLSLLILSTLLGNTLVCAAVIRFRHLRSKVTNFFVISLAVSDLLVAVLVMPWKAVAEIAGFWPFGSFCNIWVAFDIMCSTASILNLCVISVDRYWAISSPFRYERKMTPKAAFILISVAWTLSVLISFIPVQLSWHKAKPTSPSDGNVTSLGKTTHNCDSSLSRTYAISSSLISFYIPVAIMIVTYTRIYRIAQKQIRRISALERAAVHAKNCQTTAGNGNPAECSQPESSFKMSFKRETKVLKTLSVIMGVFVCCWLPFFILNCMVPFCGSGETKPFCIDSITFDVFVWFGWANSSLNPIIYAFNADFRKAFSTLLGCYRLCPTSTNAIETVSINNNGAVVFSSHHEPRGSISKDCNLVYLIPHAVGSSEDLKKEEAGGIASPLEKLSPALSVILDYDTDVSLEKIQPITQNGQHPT
As to the kind of experiment: radioligand binding assay, dopamine D1 receptor, [3H]SCH 23390. As to conditions: porcine striatum membranes, mean of two to five experiments in triplicate, read-out: Ki D1.

For another data set, the target named is human D2long, D2short (Homo sapiens, UniProt P14416). The data set can be described thus: biochemical. The class given is binding. As to conditions: CHO cell membranes, [3H]spiperone; mean of two to five experiments in triplicate; read-out: Ki D2.
Chain of human D2long, D2short (P14416 whole entry): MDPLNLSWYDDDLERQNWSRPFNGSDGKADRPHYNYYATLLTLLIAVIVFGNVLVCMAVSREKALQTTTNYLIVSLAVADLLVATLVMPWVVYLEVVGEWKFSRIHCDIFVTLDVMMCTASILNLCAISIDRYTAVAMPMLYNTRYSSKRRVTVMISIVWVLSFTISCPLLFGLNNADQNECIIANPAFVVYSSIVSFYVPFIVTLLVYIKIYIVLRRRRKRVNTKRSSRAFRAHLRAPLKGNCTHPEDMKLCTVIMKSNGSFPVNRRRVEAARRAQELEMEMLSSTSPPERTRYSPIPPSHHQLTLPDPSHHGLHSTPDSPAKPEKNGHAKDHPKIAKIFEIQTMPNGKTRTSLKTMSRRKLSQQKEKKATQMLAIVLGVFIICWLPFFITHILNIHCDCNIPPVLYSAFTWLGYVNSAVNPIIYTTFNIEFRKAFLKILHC
The target in a further data set is human D3 (Homo sapiens, UniProt P35462). The data set can be described thus: radioligand binding assay, dopamine D3 receptor, [3H]spiperone. Conditions: CHO cell membranes, mean of two to five experiments in triplicate, read-out: Ki D3.
Chain of human D3 (P35462 whole entry): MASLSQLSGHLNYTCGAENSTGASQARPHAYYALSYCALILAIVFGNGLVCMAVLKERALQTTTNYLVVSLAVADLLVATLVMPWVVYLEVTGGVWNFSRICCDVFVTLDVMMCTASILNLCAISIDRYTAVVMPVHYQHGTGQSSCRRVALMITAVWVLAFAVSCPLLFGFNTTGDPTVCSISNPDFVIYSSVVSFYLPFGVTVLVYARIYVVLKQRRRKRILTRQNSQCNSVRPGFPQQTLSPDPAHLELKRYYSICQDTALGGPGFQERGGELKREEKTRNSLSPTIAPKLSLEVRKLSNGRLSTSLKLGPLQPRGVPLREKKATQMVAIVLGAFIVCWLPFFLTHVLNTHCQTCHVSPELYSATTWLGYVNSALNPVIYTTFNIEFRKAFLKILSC
The target in another data set is T3, human D4.4 (Homo sapiens, UniProt P21917).
T3 sequence (P21917 1-419): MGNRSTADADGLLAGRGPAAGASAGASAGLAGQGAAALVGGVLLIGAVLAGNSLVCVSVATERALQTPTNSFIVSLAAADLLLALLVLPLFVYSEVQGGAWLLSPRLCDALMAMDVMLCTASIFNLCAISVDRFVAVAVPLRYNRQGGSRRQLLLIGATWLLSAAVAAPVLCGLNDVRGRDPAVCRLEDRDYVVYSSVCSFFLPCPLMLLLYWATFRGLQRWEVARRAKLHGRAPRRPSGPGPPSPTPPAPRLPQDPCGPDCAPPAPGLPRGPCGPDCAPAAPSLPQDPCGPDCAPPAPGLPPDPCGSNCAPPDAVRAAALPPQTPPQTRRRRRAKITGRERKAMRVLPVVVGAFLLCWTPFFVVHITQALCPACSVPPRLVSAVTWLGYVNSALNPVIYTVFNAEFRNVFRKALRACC
The data set can be described thus: radioligand binding assay, dopamine D4.4 receptor, [3H]spiperone. As to conditions: CHO cell membranes, mean of two to five experiments in triplicate, read-out: Ki D4.4.

The target of another data set is T4, 5-HT1A (Sus scrofa, UniProt A0A4X1UTF5).
T4 construct: membrane preparations from porcine cortex; from tissue; host or cells: porcine cortex
T4 sequence (A0A4X1UTF5 1-422): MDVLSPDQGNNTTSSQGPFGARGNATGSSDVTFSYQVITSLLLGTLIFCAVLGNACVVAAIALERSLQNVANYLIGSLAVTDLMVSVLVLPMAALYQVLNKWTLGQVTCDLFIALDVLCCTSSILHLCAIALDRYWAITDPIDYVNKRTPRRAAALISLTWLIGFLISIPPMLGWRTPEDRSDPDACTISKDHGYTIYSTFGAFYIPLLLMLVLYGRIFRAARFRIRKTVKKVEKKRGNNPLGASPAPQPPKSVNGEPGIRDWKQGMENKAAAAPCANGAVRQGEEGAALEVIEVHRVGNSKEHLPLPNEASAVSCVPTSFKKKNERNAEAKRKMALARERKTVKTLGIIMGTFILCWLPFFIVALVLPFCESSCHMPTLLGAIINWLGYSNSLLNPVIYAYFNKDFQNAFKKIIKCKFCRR
The data set can be described thus: radioligand binding assay, serotonin 5-HT1A receptor, [3H]WAY 100635. Conditions: porcine cortex membranes, mean of two to five experiments in triplicate, read-out: Ki 5-HT1a. Put shortly: (§1)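 Porcine cortical membranes incubated with [3H]prazosin for alpha-1 or [3H]WAY 100635 for 5-HT1A. Ki values in nM are means of two to five experiments, each in triplicate.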

The target in the next data set is T5, 5-HT2 (Sus scrofa, UniProt P50129).
T5 construct: membrane preparations from porcine cortex; from tissue; host or cells: porcine cortex
T5 sequence (P50129 whole entry): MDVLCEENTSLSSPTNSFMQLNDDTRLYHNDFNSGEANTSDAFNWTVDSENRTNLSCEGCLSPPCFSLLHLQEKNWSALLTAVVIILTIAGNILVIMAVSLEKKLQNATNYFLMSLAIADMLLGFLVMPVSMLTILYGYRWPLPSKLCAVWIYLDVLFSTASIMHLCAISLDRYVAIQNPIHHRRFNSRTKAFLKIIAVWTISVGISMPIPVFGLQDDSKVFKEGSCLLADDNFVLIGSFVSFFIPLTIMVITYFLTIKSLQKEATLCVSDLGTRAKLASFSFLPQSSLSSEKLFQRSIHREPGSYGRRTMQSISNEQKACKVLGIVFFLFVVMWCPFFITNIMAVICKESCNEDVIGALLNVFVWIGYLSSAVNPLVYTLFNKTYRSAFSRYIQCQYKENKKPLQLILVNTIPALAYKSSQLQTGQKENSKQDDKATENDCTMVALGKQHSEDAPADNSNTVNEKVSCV
The data set can be described thus: radioligand binding assay, serotonin 5-HT2 receptor, [3H]ketanserin. Details: species or system porcine.

Another data set has as its target alpha-1. The data set can be described thus: radioligand binding assay, adrenergic alpha-1 receptor, [3H]prazosin. As to conditions: porcine cortical membranes, mean of two to five experiments in triplicate, read-out: Ki alpha1. Put shortly:
as §1

Where [2] appears, read: porcine cortex membranes, [3H]ketanserin, mean of two to five experiments in triplicate, read-out: Ki 5-HT2.

In the case of `Cc1ccc(CNCC2(F)CCN(C(=O)c3ccc(F)c(Cl)c3)CC2)nc1` [Example F13640, reference compound], the “5-HT1A stimulated [35S]GTPγS binding intrinsic effect” value (“5-HT1A stimulated” below) at human 5-HT1A receptor is reported as “D (D=full agonist (>75%))”. Further, in data set [1], the “half-life elimination from plasma” value is 35 h.

In the case of `Cc1ccc(CNCC2(F)CCN(C(=O)c3sccc3Cl)CC2)nc1` [Example E3, 3-Chlorothien-2-yl-[4-fluoro-4-[[(5-methylpyridin-2-ylmethyl)amino]methyl]-piperidin-1-yl]-methanone], the pKi (usually the negative decadic logarithm of the Ki, by convention in mol/L) on dopamine D1 receptor is less than 5.30; at human D2long, D2short, less than 5.30; at human D3, less than 5.30; at human D4.4, 5.30 to 6.30; at 5-HT1A, more than 7.30; at 5-HT2 (setting [2]) it was less than 5.30. The pKi at alpha-1 was 5.30 to 6.30. Besides, on human 5-HT1A receptor, the “5-HT1A stimulated” value is reported as “D (D=full agonist (>75%))”. Further, the pEC50 (in general, the EC50 on a negative log10 scale, so that one unit is a factor of ten) on human 5-HT1A receptor was more than 7.30.

Turning to `Cc1ccc(CNCC2(F)CCN(C(=O)c3sccc3C)CC2)nc1` [Example E9, [4-Fluoro-4-[[(5-methylpyridin-2-ylmethyl)amino]methyl]piperidin-1-yl]-3-methylthien-2-yl-methanone], the pKi on dopamine D1 receptor is less than 5.30; at human D2long, D2short, less than 5.30; on human D3, less than 5.30; at human D4.4 it was less than 5.30; at 5-HT1A, more than 7.30; at 5-HT2 (setting [2]) it was less than 5.30. In addition, the pKi on alpha-1 was less than 5.30. For the same compound, the “5-HT1A stimulated” value on human 5-HT1A receptor is reported as “D (D=full agonist (>75%))”. The pEC50 at human 5-HT1A receptor is more than 7.30.

Take `Cc1ccc(CNCC2(F)CCN(C(=O)c3cc(C)cs3)CC2)nc1` [Example E10, [4-Fluoro-4-[[(5-methylpyridin-2-ylmethyl)amino]methyl]piparidin-1-yl]-4-methylthien-2-yl-mothanone]: the negative logarithm of the Ki (pKi) at dopamine D1 receptor was less than 5.30; on human D2long, D2short, less than 5.30; on human D3, less than 5.30; at human D4.4, 5.30 to 6.30; on 5-HT1A, more than 7.30; on 5-HT2, less than 5.30. Besides, the negative logarithm of the Ki (pKi) at alpha-1 is 5.30 to 6.30. The “5-HT1A stimulated” value on human 5-HT1A receptor is reported as “D (D=full agonist (>75%))”. For the same compound, the pEC50 at human 5-HT1A receptor is more than 7.30.

As for `Cc1ccc(CNCC2(F)CCN(C(=O)c3ccsc3)CC2)nc1` [Example E18, [4-Fluoro-4-[[(5-methylpyridin-2-ylmethyl)amino]methyl]piperidin-1-yl]-thien-3-yl-methanone], the negative logarithm of the Ki (pKi) at dopamine D1 receptor was less than 5.30; at human D2long, D2short it was less than 5.30; at human D3, less than 5.30; on human D4.4, less than 5.30; on 5-HT1A, more than 7.30; on 5-HT2 (setting [2]), less than 5.30. For the same compound, the pKi on alpha-1 is less than 5.30. The “5-HT1A stimulated” value at human 5-HT1A receptor is listed as “D (D=full agonist (>75%))”. On human 5-HT1A receptor, the pEC50 was more than 7.30.
